# Measurements published in the supplement of paper PMC10307832.
# What was measured:
# Test in all cases: relative viability (nuclei count vs DMSO), 5 days (fraction); higher = more cells survive
# Pictilisib + AZD7762 = compound: CS(=O)(=O)N1CCN(Cc2cc3nc(-c4cccc5[nH]ncc45)nc(N4CCOCC4)c3s2)CC1 [Pictilisib] + NC(=O)Nc1cc(-c2cccc(F)c2)sc1C(=O)N[C@H]1CCCNC1 [AZD7762] (partner 0.2 µM)
# In short: (§1)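 Dosing by pin tool came one day after lung cancer cell lines were seeded in 1536-well plates, using either one drug or a fixed anchor-drug dose plus five library-drug doses (not always all listed) in √10 steps. After 5 days, nuclei were counted on 4× images. Relative viability is treated-well nuclei count divided by vehicle-well nuclei count, and values are medians of duplicate plates.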
# Pictilisib + Alpelisib = compound: CS(=O)(=O)N1CCN(Cc2cc3nc(-c4cccc5[nH]ncc45)nc(N4CCOCC4)c3s2)CC1 [Pictilisib] + Cc1nc(NC(=O)N2CCC[C@H]2C(N)=O)sc1-c1ccnc(C(C)(C)C(F)(F)F)c1 [Alpelisib] (partner 2 µM)
# In short: as §1
# MK-2206 + Crizotinib = compound: NC1(c2ccc(-c3nc4ccn5c(=O)[nH]nc5c4cc3-c3ccccc3)cc2)CCC1 [MK-2206] + C[C@@H](Oc1cc(-c2cnn(C3CCNCC3)c2)cnc1N)c1c(Cl)ccc(F)c1Cl [Crizotinib] (partner 1 µM)
# In short: as §1
# Pictilisib + Vorinostat = compound: CS(=O)(=O)N1CCN(Cc2cc3nc(-c4cccc5[nH]ncc45)nc(N4CCOCC4)c3s2)CC1 [Pictilisib] + O=C(CCCCCCC(=O)Nc1ccccc1)NO [Vorinostat] (partner 1 µM)
# In short: as §1
# MK-2206 + Tozasertib = compound: NC1(c2ccc(-c3nc4ccn5c(=O)[nH]nc5c4cc3-c3ccccc3)cc2)CCC1 [MK-2206] + Cc1cc(Nc2cc(N3CCN(C)CC3)nc(Sc3ccc(NC(=O)C4CC4)cc3)n2)n[nH]1 [Tozasertib] (partner 0.1 µM)
# In short: as §1
Cell Line,relative viability (Pictilisib + AZD7762; first compound 0.02 µM),relative viability (Pictilisib + AZD7762; first compound 0.06325 µM),relative viability (Pictilisib + AZD7762; first compound 0.6325 µM),relative viability (Pictilisib + AZD7762; first compound 2 µM),relative viability (Pictilisib + Alpelisib; first compound 0.02 µM),relative viability (Pictilisib + Alpelisib; first compound 0.06325 µM),relative viability (Pictilisib + Alpelisib; first compound 0.6325 µM),relative viability (Pictilisib + Alpelisib; first compound 2 µM),relative viability (MK-2206 + Crizotinib; first compound 0.01 µM),relative viability (MK-2206 + Crizotinib; first compound 0.03162 µM),relative viability (MK-2206 + Crizotinib; first compound 0.3162 µM),relative viability (MK-2206 + Crizotinib; first compound 1 µM),relative viability (Pictilisib + Vorinostat; first compound 0.02 µM),relative viability (Pictilisib + Vorinostat; first compound 0.06325 µM),relative viability (Pictilisib + Vorinostat; first compound 0.6325 µM),relative viability (Pictilisib + Vorinostat; first compound 2 µM),relative viability (MK-2206 + Tozasertib; first compound 0.01 µM),relative viability (MK-2206 + Tozasertib; first compound 0.03162 µM),relative viability (MK-2206 + Tozasertib; first compound 0.3162 µM),relative viability (MK-2206 + Tozasertib; first compound 1 µM)
NCI-H2087,1.39,1.29,1.29,0.952,1.22,1.06,1.02,0.954,0.777,0.889,0.749,0.835,0.61,1.06,0.919,0.539,0.26,0.242,0.223,0.259
NCI-H2126,1.02,1.01,0.956,0.716,0.776,0.712,0.679,0.564,1.01,1.02,1.01,0.979,0.794,0.732,0.504,0.317,0.814,0.897,0.822,0.775
NCI-H2170,0.879,0.917,0.645,0.422,0.834,0.879,0.813,0.583,1.17,1.41,1.21,1.18,0.856,0.822,0.611,0.304,0.789,0.717,0.659,0.763
NCI-H2347,0.796,0.806,0.546,0.396,1.1,1.09,0.912,0.873,0.733,0.761,0.708,0.67,0.669,0.607,0.416,0.321,0.521,0.631,0.561,0.496
NCI-H2405,0.784,0.629,0.427,0.264,0.957,0.785,0.732,0.424,0.79,0.858,0.83,0.786,1.26,1.06,0.842,0.432,0.818,0.799,0.662,0.635
NCI-H3122,0.961,1.07,0.871,0.348,0.749,0.723,0.658,0.469,0.261,0.278,0.218,0.263,0.91,0.965,0.759,0.504,0.366,0.39,0.469,0.169
PC-3 [JPC-3],0.812,0.844,0.491,0.324,1,1.09,1.04,0.976,0.973,0.98,0.946,1.03,0.953,0.548,0.613,0.418,0.874,0.83,0.873,0.899
PC-14,0.399,0.366,0.246,0.155,0.924,0.943,1.02,0.766,0.826,0.928,0.914,0.879,0.72,0.661,0.534,0.325,0.593,0.653,0.587,0.642
RERF-LC-KJ,0.999,0.916,0.855,0.55,0.784,0.712,0.697,0.574,0.808,0.806,0.871,0.842,0.732,0.699,0.573,0.461,0.538,0.529,0.461,0.364
